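Assay format: 96-well plates, 48-hour exposure. GI50 is the concentration that inhibits growth by half.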 Calls of active or inactive are those of the source. Cut-off read from the data, not from the text of the source: active = GI50 up to about 1.1 µM and inactive = higher.
Key:
Assay in all cases: DTP human tumour cell line panel, 48 h
OVCAR-4 = system: OVCAR-4
BT-549 = system: BT-549
PC-3 = system: PC-3
HOP-62 = system: HOP-62
UO-31 = system: UO-31
KM12 = system: KM12
SN12C = system: SN12C
UACC-62 = system: UACC-62
M14 = system: M14
DU-145 = system: DU-145
HCT-116 = system: HCT-116
CCRF-CEM = system: CCRF-CEM
SF-539 = system: SF-539
OVCAR-5 = system: OVCAR-5
Malme-3M = system: Malme-3M
T47D = system: T47D
SK-OV-3 = system: SK-OV-3
NCI-H522 = system: NCI-H522
SF-295 = system: SF-295
HCC 2998 = system: HCC 2998

SMILES	GI50 (OVCAR-4)	GI50 (BT-549)	GI50 (PC-3)	GI50 (HOP-62)	GI50 (UO-31)	GI50 (KM12)	GI50 (SN12C)	GI50 (UACC-62)	GI50 (M14)	GI50 (DU-145)	GI50 (HCT-116)	GI50 (CCRF-CEM)	GI50 (SF-539)	GI50 (OVCAR-5)	GI50 (Malme-3M)	GI50 (T47D)	GI50 (SK-OV-3)	GI50 (NCI-H522)	GI50 (SF-295)	GI50 (HCC 2998)
Cc1c([N+](=O)[O-])ccc2c(NCCCN(C)C)ccnc12	17.4 µM (inactive)	17.9 µM (inactive)	16.4 µM (inactive)	31.1 µM (inactive)	13.7 µM (inactive)	16.7 µM (inactive)	29.1 µM (inactive)	20.7 µM (inactive)	16.3 µM (inactive)	33 µM (inactive)	15.2 µM (inactive)	> 100 µM (inactive)	16.8 µM (inactive)	29.6 µM (inactive)	17.2 µM (inactive)	25.4 µM (inactive)	39.8 µM (inactive)	17.3 µM (inactive)	22.2 µM (inactive)	–
CCC1=C(CC2NCCc3cc(OC)c(OC)cc32)CC2c3ccccc3CCN2C1 (configuration not stated)	22.5 µM (inactive)	49.4 µM (inactive)	16.2 µM (inactive)	21.7 µM (inactive)	15 µM (inactive)	23.7 µM (inactive)	21.7 µM (inactive)	15.5 µM (inactive)	14.3 µM (inactive)	38.5 µM (inactive)	8.55 µM (inactive)	10.4 µM (inactive)	9.55 µM (inactive)	12.4 µM (inactive)	14.6 µM (inactive)	20.7 µM (inactive)	> 100 µM (inactive)	14.8 µM (inactive)	20.4 µM (inactive)	–
O=S(=O)(CC(O)C(Cl)(Cl)Cl)NNc1ccccc1 (configuration not stated)	> 100 µM (inactive)	> 100 µM (inactive)	> 100 µM (inactive)	> 100 µM (inactive)	–	> 100 µM (inactive)	> 100 µM (inactive)	20.7 µM (inactive)	81.7 µM (inactive)	> 100 µM (inactive)	> 100 µM (inactive)	> 100 µM (inactive)	> 100 µM (inactive)	> 100 µM (inactive)	> 100 µM (inactive)	81.5 µM (inactive)	> 100 µM (inactive)	> 100 µM (inactive)	80.7 µM (inactive)	–
CC(C)OC(=O)[C@@H](O)[C@H](CO)C1=CC([Si](C)(C)c2ccccc2)=CON1	> 100 µM (inactive)	> 100 µM (inactive)	> 100 µM (inactive)	> 100 µM (inactive)	> 100 µM (inactive)	> 100 µM (inactive)	–	> 100 µM (inactive)	> 100 µM (inactive)	> 100 µM (inactive)	> 100 µM (inactive)	–	> 100 µM (inactive)	> 100 µM (inactive)	–	> 100 µM (inactive)	> 100 µM (inactive)	–	> 100 µM (inactive)	> 100 µM (inactive)
COc1cc(O)c2c(O)c3c(c4c2c1[C@]1(C4)C(C)=CCCC1(C)C)[C@H](O)[C@@]1(O)CC(O)=C(C(N)=O)C(=O)[C@@]1(O)C3=O	0.245 µM (active)	0.318 µM (active)	0.119 µM (active)	0.16 µM (active)	0.34 µM (active)	0.346 µM (active)	0.0531 µM (active)	0.573 µM (active)	0.126 µM (active)	0.359 µM (active)	0.209 µM (active)	0.0326 µM (active)	0.166 µM (active)	0.324 µM (active)	0.158 µM (active)	0.365 µM (active)	0.348 µM (active)	0.071 µM (active)	0.322 µM (active)	–
CN1CCc2c(sc3ncn(Nc4ccc(F)cc4)c(=N)c23)C1	> 100 µM (inactive)	> 100 µM (inactive)	> 100 µM (inactive)	> 100 µM (inactive)	–	> 100 µM (inactive)	> 100 µM (inactive)	> 100 µM (inactive)	> 100 µM (inactive)	> 100 µM (inactive)	> 100 µM (inactive)	> 100 µM (inactive)	> 100 µM (inactive)	> 100 µM (inactive)	> 100 µM (inactive)	> 100 µM (inactive)	> 100 µM (inactive)	65 µM (inactive)	> 100 µM (inactive)	–
C=C(C(=O)O)C1CCC(CC/C=C(\C)CC/C=C(\C)CCC=C(C)C)CO1 (configuration not stated)	27.4 µM (inactive)	18 µM (inactive)	24.8 µM (inactive)	23.1 µM (inactive)	12.5 µM (inactive)	14.8 µM (inactive)	14.2 µM (inactive)	40 µM (inactive)	11.1 µM (inactive)	17.5 µM (inactive)	4.99 µM (inactive)	22.6 µM (inactive)	12.1 µM (inactive)	18 µM (inactive)	21.5 µM (inactive)	26.2 µM (inactive)	82.2 µM (inactive)	20.7 µM (inactive)	18.2 µM (inactive)	–
COc1ccc(N2C(=O)C3ON(Cc4ccc(CC(N)=O)cc4)C(c4c5ccccc5c(C)c5ccccc45)C3C2=O)cc1 (configuration not stated)	13.6 µM (inactive)	30.1 µM (inactive)	21.6 µM (inactive)	40.4 µM (inactive)	16.4 µM (inactive)	12.1 µM (inactive)	33.7 µM (inactive)	30.7 µM (inactive)	24.3 µM (inactive)	20.9 µM (inactive)	17.9 µM (inactive)	12.4 µM (inactive)	–	27 µM (inactive)	35.8 µM (inactive)	17.6 µM (inactive)	> 100 µM (inactive)	20 µM (inactive)	22 µM (inactive)	–
c1ccc([P+](c2ccccc2)(c2ccccc2)c2ccc([P+](c3ccccc3)(c3ccccc3)c3ccccc3)cc2)cc1	–	31.3 µM (inactive)	41.4 µM (inactive)	> 100 µM (inactive)	> 100 µM (inactive)	31 µM (inactive)	35.7 µM (inactive)	71.6 µM (inactive)	82 µM (inactive)	52.8 µM (inactive)	32 µM (inactive)	22.9 µM (inactive)	24.8 µM (inactive)	88.5 µM (inactive)	> 100 µM (inactive)	27.9 µM (inactive)	> 100 µM (inactive)	37.1 µM (inactive)	> 100 µM (inactive)	–
CCOc1ccccc1/C=C(/C#N)C(N)=O	> 100 µM (inactive)	> 100 µM (inactive)	> 100 µM (inactive)	> 100 µM (inactive)	85.3 µM (inactive)	> 100 µM (inactive)	> 100 µM (inactive)	96.2 µM (inactive)	> 100 µM (inactive)	> 100 µM (inactive)	78.3 µM (inactive)	10.3 µM (inactive)	70.6 µM (inactive)	> 100 µM (inactive)	> 100 µM (inactive)	> 100 µM (inactive)	> 100 µM (inactive)	> 100 µM (inactive)	> 100 µM (inactive)	–
COc1cc(S(=O)(=O)Nc2ccc(-c3csc(N4C(=O)C(Cl)C4c4ccccc4)n3)cc2)ccc1Cl (configuration not stated)	52.6 µM (inactive)	26.9 µM (inactive)	> 100 µM (inactive)	69.2 µM (inactive)	25 µM (inactive)	44.2 µM (inactive)	24.9 µM (inactive)	22.9 µM (inactive)	24 µM (inactive)	16 µM (inactive)	59.6 µM (inactive)	3.37 µM (inactive)	32.7 µM (inactive)	47.4 µM (inactive)	22.3 µM (inactive)	28.4 µM (inactive)	> 100 µM (inactive)	3.14 µM (inactive)	> 100 µM (inactive)	–
